Data published in patent publication US20260007613A1, “LONG-ACTING LOW-TOXICITY NOVEL CATIONIC LIPID COMPOUNDS AND COMPOSITION THEREOF” (BEIJING YOUCAREKECHUANG PHARMACEUTICAL TECHNOLOGY CO., LTD., priority 2023, published 2026).
Several values for one entry are separate records, joined by “and”; a condition that tells them apart may be missing. Equal entries are not always repeated.

How the values were obtained:
[1] = Particle size and polydispersity index (PDI) of lipid nanoparticles by dynamic light scattering; format: physicochemical; conditions: LNP formulation prepared from the cationic lipid, 25° C.
Protocol: The particle size and polydispersity index (PDI) were determined by dynamic light scattering using Malvern laser particle size analyzer.
10 μL of the liposome solution was weighed, diluted to 1 mL with RNase-free deionized water, and added to the sample pool. Each sample was measured in triplicate. The measurement conditions were: […] scattering angle, and 25° C.

293T cells [2] = assay: Cell survival rate determination (CCK-8); format: cell-based; conditions: difference of survival rates
Procedure, shortened: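 Readout was CCK-8 absorbance (450 nm, 1 h) taken after a 24 h exposure of overnight-adhered 293T cells (10,000 per well, 96-well) to Lipofectamine 3000 or to LNPs carrying Fluc-mRNA, lipid molar ratio 49:10:39.5:1.5 cationic/neutral/structured/polymer-conjugated.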

liver = assay: Distribution of liposomes in mice: protein expression in the liver (live imaging); format: in vivo; conditions: at 6 h
Procedure, shortened: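 Female BALB/C mice (4–6 weeks, 17–19 g) received LNP carrying […] Fluc-mRNA intramuscularly. At 6 h, 24 h, 48 h and 7 d, the luciferase substrate was given intraperitoneally. After 5 min of free movement, average radiance was imaged with IVIS Spectrum.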

female BALB/C mice = assay: Live imaging in mice: protein expression of Fluc-mRNA delivered by LNP formulations; format: in vivo; conditions: for average radiation intensity, times that of ALC-0315: comparator ALC-0315; for average radiation intensity, times that of HHMA: comparator HHMA; for average radiation intensity, times that of SM-102: comparator SM-102; for expression of mRNA in mice, times that of YK-302: comparator YK-302; for expression amount, times that of YK-321: comparator YK-321; for average radiation intensity, times that of compound 21: comparator compound 21; for average radiation intensity, times that of compound 23: comparator compound 23
Procedure, shortened: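 Female BALB/C mice (4-6 weeks, 17-19 g) received LNP-formulated Fluc-mRNA […] intramuscularly. At 6 h, 24 h, 48 h and 7 d, luciferase substrate given intraperitoneally, and after 5 min average radiance measured by IVIS whole-body imaging.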

293T cells [3] = assay: Fluorescent detection of Fluc-mRNA (cell transfection efficiency of LNP formulations); format: cell-based
Procedure, shortened: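 Transfection read-out: IVIS imaging after […], 24 h after adding LNPs (lipid molar ratio 49:10:39.5:1.5 cationic/neutral/structured/polymer-lipid; […] Fluc-mRNA). Adherent 293T cells were seeded overnight at 10,000 per well beforehand.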

## CCCCCCC(CCCCCC)CCOC(=O)CCCCCCN(CCCCCCC(=O)OCCC(CCCCCC)CCCCCC)C[C@H](O)CN(CCO)CCO [YK-319]
[1]
  PDI (%): 11.7%
  Particle size (nm): 200 nm
293T cells [2]; comparator ALC-0315
  cell survival rate higher than ALC-0315: 24.18%
293T cells [2]; comparator HHMA
  cell survival rate higher than HHMA: 8.74%
293T cells [2]; comparator Lipofectamine 3000
  cell survival rate higher than Lipofectamine 3000: 50.20%
293T cells [2]; comparator SM-102
  cell survival rate higher than SM-102: 5.76%
293T cells [2]; comparator YK-301
  cell survival rate higher than YK-301: 22.25%
293T cells [2]; comparator YK-302
  cell survival rate higher than YK-302: 58.78%
293T cells [2]; comparator YK-303
  cell survival rate higher than YK-303: 11.89%
293T cells [2]; comparator YK-304
  cell survival rate higher than YK-304: 41.05%
293T cells [2]; comparator YK-306
  cell survival rate higher than YK-306: 33.02%
293T cells [2]; comparator YK-307
  cell survival rate higher than YK-307: 14.07%
293T cells [2]; comparator YK-308
  cell survival rate higher than YK-308: 4.22%
293T cells [2]; comparator YK-309
  cell survival rate higher than YK-309: 43.60%
293T cells [2]; comparator YK-311
  cell survival rate higher than YK-311: 5.15%
293T cells [2]; comparator YK-313
  cell survival rate higher than YK-313: 6.28%
293T cells [2]; comparator YK-314
  cell survival rate higher than YK-314: 7.33%
293T cells [2]; comparator YK-315
  cell survival rate higher than YK-315: 3.93%
293T cells [2]; comparator YK-316
  cell survival rate higher than YK-316: 4.68%
293T cells [2]; comparator YK-317
  cell survival rate higher than YK-317: 16.03%
293T cells [2]; comparator YK-320
  cell survival rate higher than YK-320: 4.14%
293T cells [2]; comparator YK-321
  cell survival rate higher than YK-321: 2.87%
293T cells [2]; comparator compound 21
  cell survival rate higher than compound 21: 5.00%
293T cells [2]; comparator compound 23
  cell survival rate higher than compound 23: 3.71%
liver
  expression amount in the liver compared with ALC-0315 and SM-102: reduced
liver; intramuscular injection
  protein expression in the liver: had protein expression in the liver
Female BALB/C mice; 6 h
  average radiation intensity, times that of ALC-0315: 9.53 times
  average radiation intensity, times that of HHMA: 12.64 times
  average radiation intensity, times that of SM-102: 11.74 times
  expression of mRNA in mice, times that of YK-302: 564.51 times
  expression amount, times that of YK-321: 15.96 times
  average radiation intensity, times that of compound 21: 13.49 times
  average radiation intensity, times that of compound 23: 13.96 times
Female BALB/C mice; 6 h after intramuscular injection
  average radiation intensity: 8230500
Female BALB/C mice; 24 h
  average radiation intensity, times that of ALC-0315: 12.78 times
  average radiation intensity, times that of HHMA: 20.29 times
  average radiation intensity, times that of SM-102: 20.20 times
  expression of mRNA in mice, times that of YK-302: 615.26 times
  expression amount, times that of YK-321: 24.04 times
  average radiation intensity, times that of compound 21: 22.16 times
  average radiation intensity, times that of compound 23: 23.28 times
Female BALB/C mice; 24 h after intramuscular injection
  average radiation intensity: 2433960
Female BALB/C mice; 48 h
  average radiation intensity, times that of ALC-0315: 22.30 times
  average radiation intensity, times that of HHMA: 27.27 times
  average radiation intensity, times that of SM-102: 27.27 times
  expression of mRNA in mice, times that of YK-302: 866.03 times
  expression amount, times that of YK-321: 24.28 times
  average radiation intensity, times that of compound 21: 28.65 times
  average radiation intensity, times that of compound 23: 26.80 times
Female BALB/C mice; 48 h after intramuscular injection
  average radiation intensity: 887680
Female BALB/C mice; 7 d
  average radiation intensity, times that of ALC-0315: 14.88 times
  average radiation intensity, times that of HHMA: 17.86 times
  average radiation intensity, times that of SM-102: 15.84 times
  expression of mRNA in mice, times that of YK-302: 273.07 times
  expression amount, times that of YK-321: 15.92 times
  average radiation intensity, times that of compound 21: 16.27 times
  average radiation intensity, times that of compound 23: 16.80 times
Female BALB/C mice; 7 d after intramuscular injection
  average radiation intensity: 104860
293T cells [3]; LNP formulation of Fluc-mRNA, 96-well plate, 24 hours
  Relative light unit (RLU): 24467760 RLU
293T cells [3]; RLU of YK-305 / RLU of the lipid of the line
  Multiples (YK-305): 1.12
293T cells [3]; RLU of YK-310 / RLU of the lipid of the line
  Multiples (YK-310): 1.05
293T cells [3]; RLU of YK-312 / RLU of the lipid of the line
  Multiples (YK-312): 0.82
293T cells [3]; RLU of YK-318 / RLU of the lipid of the line, Tables 5, 7, 11
  Multiples (YK-318): 0.46
293T cells [3]; RLU of YK-319 / RLU of the lipid of the line, Tables 5, 7, 11
  Multiples (YK-319): 1.00
293T cells [3]; RLU of the lipid / RLU of SM-102, times that of SM-102
  Ratio relative to SM-102: 15.25
293T cells [3]; comparator ALC-0315
  cell transfection efficiency, times that of ALC-0315: 12.03 times
293T cells [3]; comparator HHMA
  cell transfection efficiency, times that of HHMA: 12.20 times
293T cells [3]; comparator Lipofectamine 3000
  cell transfection efficiency, times that of Lipofectamine 3000: 20.63 times
293T cells [3]; comparator YK-009
  cell transfection efficiency, times that of YK-009: 4.78 times
293T cells [3]; comparator YK-301
  cell transfection efficiency, times that of YK-301: 29.04 times
293T cells [3]; comparator YK-302
  cell transfection efficiency, times that of YK-302: 880.83 times
293T cells [3]; comparator YK-303
  cell transfection efficiency, times that of YK-303: 39.07 times
293T cells [3]; comparator YK-304
  cell transfection efficiency, times that of YK-304: ~1100 times and 1182.82 times
293T cells [3]; comparator YK-306
  cell transfection efficiency, times that of YK-306: 11.14 times
293T cells [3]; comparator YK-307
  cell transfection efficiency, times that of YK-307: 5.37 times
293T cells [3]; comparator YK-308
  cell transfection efficiency, times that of YK-308: 2.22 times
293T cells [3]; comparator YK-309
  cell transfection efficiency, times that of YK-309: ~190 times and 195.16 times
293T cells [3]; comparator YK-311
  cell transfection efficiency, times that of YK-311: 12.46 times
293T cells [3]; comparator YK-313
  cell transfection efficiency, times that of YK-313: 28.24 times
293T cells [3]; comparator YK-314
  cell transfection efficiency, times that of YK-314: 44.70 times
293T cells [3]; comparator YK-315
  cell transfection efficiency, times that of YK-315: 15.42 times
293T cells [3]; comparator YK-316
  cell transfection efficiency, times that of YK-316: 5.09 times
293T cells [3]; comparator YK-317
  cell transfection efficiency, times that of YK-317: 6.79 times
293T cells [3]; comparator YK-320
  cell transfection efficiency, times that of YK-320: 9.05 times
293T cells [3]; comparator YK-321
  cell transfection efficiency, times that of YK-321: 17.43 times
293T cells [3]; comparator compound 21
  cell transfection efficiency, times that of compound 21: 17.08 times
293T cells [3]; comparator compound 23
  cell transfection efficiency, times that of compound 23: 18.04 times
